Laboratory results as given in article PMC5297809, “Design, Synthesis and Antifungal Activity Evaluation of New Thiazolin-4-ones as Potential Lanosterol 14α-Demethylase Inhibitors” (International Journal of Molecular Sciences, 2017).
≈ marks a conversion by molar mass, not a printed value.

Key:
[1] = system: Candida albicans ATCC 10231; experiment: broth microdilution MIC/MFC; assay type: cell-based; conditions: for MFC: ATCC10231, C. albicans ATCC 10231, read-out: MFC; for MIC: ATCC10231, C. albicans ATCC 10231, read-out: MIC
[2] = system: Candida albicans ATCC 18804; experiment: broth microdilution MIC/MFC; assay type: cell-based; conditions: for MFC: ATCC18804, C. albicans ATCC 18804, read-out: MFC; for MIC: ATCC18804, C. albicans ATCC 18804, read-out: MIC
[3] = system: Candida krusei ATCC 6258; experiment: broth microdilution MIC/MFC; assay type: cell-based; conditions: Pichia kudriavzevii, ATCC6258, C. krusei ATCC 6258; for MFC: read-out: MFC; for MIC: read-out: MIC
[4] = system: Candida parapsilosis ATCC 22019; experiment: broth microdilution MIC/MFC; assay type: cell-based; conditions: Lodderomyces parapsilosis, ATCC22019, C. parapsilosis ATCC 22019; for MFC: read-out: MFC; for MIC: read-out: MIC
[5] = system: four strains of Candida; experiment: broth microdilution MIC/MFC, summary over the four strains; assay type: cell-based; conditions: summary over two C. albicans, one C. krusei and one C. parapsilosis strain
[6] = system: Candida albicans ATCC 10231; experiment: cup-plate agar diffusion method, inhibition zone diameters; assay type: cell-based; conditions: ATCC10231, C. albicans ATCC 10231, 1 mg/mL in DMSO, 20 µg/well, mean of three ± SD, read-out: inhibition zone diameters
[7] = lipophilicity by RP-TLC with PCA; assay type: physicochemical; design: key to P1 / P2: PCA scores of compounds computed from Rf data; conditions: for RM0: RP-TLC C18, water-i-propanol 45-65%, intercept, RM extrapolated to 0% organic modifier (lipophilicity); for b: RP-TLC regression slope (specific hydrophobic surface area); for P1: score of first principal component of Rf data, low P1 = highly lipophilic; for P2: score of second principal component of Rf data
Procedure: The lipophilic character of twenty thiazolin-4-one derivatives was assessed with the help of the principal component analysis (PCA) based on the reversed-phase thin-layer chromatography (RP-TLC) data.
The chromatographic behavior of the test compounds was studied on C18 silicagel bonded 60 RP-180F254S TLC (20 × 20 cm) plates, purchased from Merck (Darmstadt, Germany). The test compounds’ solutions (1 mg/mL) were prepared by dissolving the samples in DMSO (Merck, Darmstadt, Germany). The plates were manually spotted with 3 µL aliquots of each solution at 10 mm from the base and 5 mm from the edge of the plate, leaving a 10 mm distance between successive spots, and developed by the ascending technique, without preconditioning. Chromatography was performed in a normal developing chamber at room temperature (~24 °C), the developing distance being of 9 cm. The solvent system used as mobile phase consisted of a water-i-propanol mixture, with a varying content of organic modifier (i-propanol—concentration ranged between 45% and 65% (v/v), with 5% vol. increments). Before the development, the chamber was saturated with the mobile phase for 15 min. After being developed, the dried plates were visually inspected under the UV light (λ = 254 nm), each spot was clearly marked and its distance was manually measured in order to calculate the Rf values. The spots of the compounds 3f, 10 and 11 were not visible in UV light, thus their Rf values could not be calculated, therefore they were excluded from this assay.
Based on the Rf values, one of the most common lipophilic estimator, meaning the isocratic retention factor RM was calculated using the Bate-Smith and Westall equations [40].
RP-TLC provides retention data in the form of Rf and the corresponding RM values (Equation (2)) that can be used to derive chromatographic descriptors for estimating lipophilicity: RM0, b and PCA. The most popular lipophilicity descriptor estimated by this method is RM and it is derived from the retention factor (Rf) according to the following formula: RM = log[(1/Rf) − 1] (2) where Rf is calculated on the basis of migration distance of a compound and the solvent front.
As RM value (related to the molecular lipophilicity) depends linearly on the concentration of the organic modifier in the mobile phase, the value is extrapolated to pure water as mobile phase. In order to increase the accuracy of the lipophilicity determination, the RM values extrapolated to zero organic modifier concentration (RM0) have been calculated from the linear correlation between the RM values and the concentration of the organic component of the mobile phase: RM = RM0 + bc (3) where RM0 is the lipophilicity estimation parameter, RM is the retention of the solute, b is the slope, and c is the concentration of the mobile phase organic modifier (i-propanol).
The intercept (RM0) in Equation (3) represents the extrapolated RM values at 0% organic modifier.
PCA was performed on the obtained retention parameters with the help of XL-STAT extension. […] PCA gave the coordinates (scores) of the studied compounds and also the loadings of the variables (solvents) on the principal components.

Q: With `CC(=O)N1CCN(c2ccc(OCC3COC(Cn4ccnc4)(c4ccc(Cl)cc4Cl)O3)cc2)CC1` (centres unmarked) [Ketoconazole, reference compound] as the compound, how does the MFC [1] read?
A: 15.6 µg/mL (≈ 29.4 µM)

Q: And the MIC [1]?
A: 7.81 µg/mL (≈ 14.7 µM)

Q: What about the MFC [2] of the same compound?
A: 15.6 µg/mL (≈ 29.4 µM)

Q: What about the MIC [2] of the same compound?
A: 7.81 µg/mL (≈ 14.7 µM)

Q: What about the MFC [3] of the same compound?
A: 15.6 µg/mL (≈ 29.4 µM)

Q: What about the MIC [3] of the same compound?
A: 7.81 µg/mL (≈ 14.7 µM)

Q: And the MFC [4]?
A: 7.81 µg/mL (≈ 14.7 µM)

Q: And the MIC [4]?
A: 3.9 µg/mL (≈ 7.34 µM)

Q: And the MFC [5]?
A: 7.81 to 15.6 µg/mL (≈ 14.7 to 29.4 µM)

Q: And the MIC [5]?
A: 3.9 to 7.81 µg/mL (≈ 7.34 to 14.7 µM)

Q: With `O=C1N=C(Nc2cccc3ccccc23)SC1=Cc1ccc([N+](=O)[O-])cc1` [Compound 9c, 2-(Naphthalen-1-ylamino)-5-(4-nitrobenzylidene)thiazol-4(5H)-one] as the compound, how does the zone of inhibition at 1000 µg/mL [6] read?
A: 20 ± 0.5 mm

Q: And the MFC [1]?
A: 3.9 µg/mL (≈ 10.4 µM)

Q: And the MIC [1]?
A: 1.95 µg/mL (≈ 5.19 µM)

Q: What about the MFC [2] of the same compound?
A: 3.9 µg/mL (≈ 10.4 µM)

Q: What about the MIC [2] of the same compound?
A: 1.95 µg/mL (≈ 5.19 µM)

Q: What about the MFC [3] of the same compound?
A: 1.95 µg/mL (≈ 5.19 µM)

Q: And the MIC [3]?
A: 0.97 µg/mL (≈ 2.58 µM)

Q: And the MFC [4]?
A: 0.06 µg/mL (≈ 0.16 µM)

Q: What about the MIC [4] of the same compound?
A: 0.03 µg/mL (≈ 0.0799 µM)

Q: And the RM0 [7]?
A: 2.7789

Q: What about the b [7] of the same compound?
A: −4.1555

Q: And the P1 [7]?
A: −2.722

Q: What about the P2 [7] of the same compound?
A: 0.228

Q: And the melting point?
A: 152 °C

Q: Which zone of inhibition at 1000 µg/mL [6] does the source give for `C=CCNC1=NC(=O)C(=Cc2ccc(O)c(OC)c2)S1` [Compound 3g, 2-(Allylamino)-5-(4-hydroxy-3-methoxybenzylidene)thiazol-4(5H)-one] here?
A: 22 ± 0.2 mm

Q: And the MFC [1]?
A: 1.95 µg/mL (≈ 6.72 µM)

Q: And the MIC [1]?
A: 0.48 µg/mL (≈ 1.65 µM)

Q: And the MFC [2]?
A: 0.97 µg/mL (≈ 3.34 µM)

Q: What about the MIC [2] of the same compound?
A: 0.48 µg/mL (≈ 1.65 µM)

Q: What about the MFC [3] of the same compound?
A: 1.95 µg/mL (≈ 6.72 µM)

Q: And the MIC [3]?
A: 0.48 µg/mL (≈ 1.65 µM)

Q: What about the MFC [4] of the same compound?
A: 0.48 µg/mL (≈ 1.65 µM)

Q: What about the MIC [4] of the same compound?
A: 0.24 µg/mL (≈ 0.827 µM)

Q: What about the RM0 [7] of the same compound?
A: 0.6734

Q: And the b [7]?
A: −1.9546

Q: And the P1 [7]?
A: 3.365

Q: And the P2 [7]?
A: 0.453

Q: What about the melting point of the same compound?
A: 240 °C

Q: Which zone of inhibition at 1000 µg/mL [6] does the source give for `O=C1N=C(Nc2ccccc2)SC1=Cc1coc2ccc(Cl)cc2c1=O` [Compound 6e, 5-((6-Chloro-4-oxo-4H-chromen-3-yl)methylene)-2-(phenylamino)thiazol-4(5H)-one] here?
A: 16 ± 1 mm

Q: And the MFC [1]?
A: 3.9 µg/mL (≈ 10.2 µM)

Q: And the MIC [1]?
A: 1.95 µg/mL (≈ 5.09 µM)

Q: What about the MFC [2] of the same compound?
A: 3.9 µg/mL (≈ 10.2 µM)

Q: What about the MIC [2] of the same compound?
A: 0.97 µg/mL (≈ 2.53 µM)

Q: And the MFC [3]?
A: 3.9 µg/mL (≈ 10.2 µM)

Q: What about the MIC [3] of the same compound?
A: 0.97 µg/mL (≈ 2.53 µM)

Q: And the MFC [4]?
A: 0.97 µg/mL (≈ 2.53 µM)

Q: And the MIC [4]?
A: 0.48 µg/mL (≈ 1.25 µM)

Q: What about the RM0 [7] of the same compound?
A: 2.22

Q: And the b [7]?
A: −3.9066

Q: What about the P1 [7] of the same compound?
A: 0.079

Q: And the P2 [7]?
A: −0.443

Q: What about the melting point of the same compound?
A: 356 °C

Q: Which zone of inhibition at 1000 µg/mL [6] does the source give for `OC(Cn1cncn1)(Cn1cncn1)c1ccc(F)cc1F` [Fluconazole, reference compound] here?
A: 22 ± 0.5 mm

Q: What about the MFC [1] of the same compound?
A: 31.2 µg/mL (≈ 102 µM)

Q: And the MIC [1]?
A: 15.6 µg/mL (≈ 51 µM)

Q: And the MFC [2]?
A: 31.2 µg/mL (≈ 102 µM)

Q: What about the MIC [2] of the same compound?
A: 15.6 µg/mL (≈ 51 µM)

Q: And the MFC [3]?
A: 31.2 µg/mL (≈ 102 µM)

Q: And the MIC [3]?
A: 15.6 µg/mL (≈ 51 µM)

Q: What about the MFC [4] of the same compound?
A: 15.6 µg/mL (≈ 51 µM)

Q: What about the MIC [4] of the same compound?
A: 7.81 µg/mL (≈ 25.5 µM)

Q: What about the MFC [5] of the same compound?
A: 15.6 to 31.2 µg/mL (≈ 51 to 102 µM)

Q: And the MIC [5]?
A: 7.81 to 15.6 µg/mL (≈ 25.5 to 51 µM)

Q: For `O=C1N=C(Nc2ccccc2)SC1=Cc1ccc([N+](=O)[O-])cc1` [Compound 6c, 5-(4-Nitrobenzylidene)-2-(phenylamino)thiazol-4(5H)-one], which zone of inhibition at 1000 µg/mL [6] is on record?
A: 20 ± 1 mm

Q: What about the MFC [1] of the same compound?
A: 1.95 µg/mL (≈ 5.99 µM)

Q: What about the MIC [1] of the same compound?
A: 0.97 µg/mL (≈ 2.98 µM)

Q: What about the MFC [2] of the same compound?
A: 3.9 µg/mL (≈ 12 µM)

Q: What about the MIC [2] of the same compound?
A: 1.95 µg/mL (≈ 5.99 µM)

Q: And the MFC [3]?
A: 1.95 µg/mL (≈ 5.99 µM)

Q: What about the MIC [3] of the same compound?
A: 0.97 µg/mL (≈ 2.98 µM)

Q: What about the MFC [4] of the same compound?
A: 1.95 µg/mL (≈ 5.99 µM)

Q: What about the MIC [4] of the same compound?
A: 0.97 µg/mL (≈ 2.98 µM)

Q: And the RM0 [7]?
A: 1.7388

Q: And the b [7]?
A: −3.3696

Q: What about the P1 [7] of the same compound?
A: 1.394

Q: What about the P2 [7] of the same compound?
A: −0.304

Q: And the melting point?
A: 347 °C
